In US5604095A, “Unsymmetrically linked bisnaphthalimides as antitumor agents” (Cancer Therapy & Research Center, priority 1994, dated 1997):
Read-outs that look alike come from different tables or passages of the source.

Tests used:
[1] = test system: B16 melanoma cell line; assay: Growth inhibition (MTT), B16 melanoma cell line; assay type: cell-based, murine; details: for IC50: B16, 3 days incubation, MTT
Description: (§1) P388 murine leukemic cell line was obtained from the DCT Tumor Repository (National Cancer Institute, Frederick Cancer Research and Development, Frederick Md. 21702). HT29 Human Colon Carcinoma cell line was obtained from the American Type Culture Collection (12301 Parklawn Drive, Rockville, Md. 20852). B16 Melanoma cell line was obtained from DuPont Merck Pharmaceutical Company (Glenolden, Pa. 19036). MCF-7 Human Breast Carcinoma cell line was a gift from Dr. K. Osborne (Department of Medicine, The University of Texas Health Science Center at San Antonio, San Antonio, Tex. 78284). All cell lines were incubated at 37° C. in a humidified atmosphere of 5% CO2 -95% air. Murine B16 melanoma cell line was grown in RPMI 1640 medium supplemented with 10% heat-inactivated fetal bovine serum, 2 mM L-glutamine, 50 units/ml penicillin, 50 μg/ml streptomycin, 25 μg/ml gentamycin, 0.75% sodium bicarbonate, 10 mM HEPES buffer (pH 7.4), and 0.06 mg/ml AntiPPLO. Murine P388 leukemic and the human HT-29 colon adenocarcinoma cell lines were maintained in RPMI 1640 medium supplemented with 10% heat-inactivated fetal bovine serum. MCF-7M human breast adenocarcinoma was maintained in IMEM medium supplemented with 5% non heat-inactivated fetal bovine serum and 1 nM insulin.
(§2) Exponentially growing cells (1-2×10^3 cells, unless specified otherwise) in 0.1 ml medium were seeded on day 0 in a 96-well microtiter plate. On day 1, 0.1 ml aliquots of medium containing graded concentrations of test compounds were added in duplicate to the cell plates. After incubation at 37° C. in a humidified incubator for 3 days (P388, B16) or 6 days (HT-29, MCF-7M), the plates were centrifuged briefly and 100 μl of the growth medium was removed. Cell cultures were incubated with 50 μl of 3-(4,5-dimethylthiazol-2-yl)-2,5-diphenyl-tetrazolium bromide [MTT, 1 mg/ml in Dulbecco's phosphate buffered saline (PBS)] for 4 hr at 37° C. The resulting purple formazan precipitate was solubilized with 200 μl of 0.04N HCl in isopropyl alcohol. Absorbance was monitored in a BioRad Model 3550 Microplate Reader at a test wavelength of 570 nm and a reference wavelength of 630 nm. The absorbance was transferred to a PC 486 computer. The IC50 values were determined by a computer program (EZ-ED50) that fit all of the data to the following four-parameterlogistic equation:
(§3) Y=((Am -Ao)/(1+(X/IC50)^n))+Ao
(§4) where Am is the absorbance of control cells, Ao is the absorbance of cells in the presence of highest agent concentration, Y is the observed absorbance, X is the agent concentration, IC50 is the concentration of agent that inhibits the cell growth by 50% of control cells (based on the absorbance) and n is the slope of the curve.

[2] = test system: MCF-7 human breast carcinoma cell line; assay: Growth inhibition (MTT), MCF-7 human breast carcinoma cell line; assay type: cell-based; details: 6 days incubation
Description: as §1, §2, §3, §4

[3] = test system: P388 murine leukemic cell line; assay: Growth inhibition (MTT), P388 murine leukemic cell line; assay type: cell-based; details: Mus musculus, 72 h, 3 days incubation
Description: P388 murine leukemic cell line was obtained from the DCT Tumor Repository (National Cancer Institute, Frederick Cancer Research and Development, Frederick Md. 21702). HT29 Human Colon Carcinoma cell line was obtained from the American Type Culture Collection (12301 Parklawn Drive, Rockville, Md. 20852). B16 Melanoma cell line was obtained from DuPont Merck Pharmaceutical Company (Glenolden, Pa. 19036). MCF-7 Human Breast Carcinoma cell line was a gift from Dr. K. Osborne (Department of Medicine, The University of Texas Health Science Center at San Antonio, San Antonio, Tex. 78284). All cell lines were incubated at 37° C. in a humidified atmosphere of 5% CO2 -95% air. […]
Exponentially growing cells (1-2×10^3 cells, unless specified otherwise) in 0.1 ml medium were seeded on day 0 in a 96-well microtiter plate. […] Absorbance was monitored in a BioRad Model 3550 Microplate Reader at a test wavelength of 570 nm and a reference wavelength of 630 nm. The absorbance was transferred to a PC 486 computer. The IC50 values were determined by a computer program (EZ-ED50) that fit all of the data to the following four-parameterlogistic equation: […]

[4] = test system: DNA; assay: Ethidium bromide displacement assay, DNA binding and AT/GC selectivity; details: for Ratio (AT/GC): FI50 poly(dA.dT) / FI50 poly(dG.dC)
Method: (§5) Stock Solutions. A 10X Binding solution was prepared by combining 0.93 ml of an aqueous NaCl solution (5M), 2.0 ml of an aqueous Tris HCl (500 mM) solution, 0.1 ml of an EDTA solution (500 mM) and 46.97 ml of water. The resultant solution was 93 mM in NaCl, 20 mM in Tris HCl, and 1 mM in EDTA. Stock DNA solution were prepared as follows: Poly (dG.dC)-(dG.dC) (ε254=8.4/mM; 27-7910-02), poly (dA.dT)-(dA.dT) (ε262=6.6/mM; 27-7870-02), and lambda DNA (δ260-7.0/mM; 27-4111-01) were purchased from Pharmacia. Solutions were prepared by resuspending either poly (dG.dC)-(dG.dC) or poly (dA.dT)-(dA.dT)in 1 ml of 10X DNA Binding Solution. Lambda DNA is already in solution as purchased.
(§6) Determination of concentration of the stock DNA solutions. Poly (dG.dC) - (dG.dC), poly (dA.dt) - (dA.dt) and lambda DNA concentrations were determined as follows: 980 μl of 10X DNA Binding Solution was pipetted into a 1 ml cuvette. A blank was run on the UV spectrophotometer. 20 μl of the DNA stock of unknown concentration was then added into the cuvette. The sample was then scanned between 210 nm to 500 nm and the absorbance recorded at 254 nm for poly (dG.dC)-(dG.dC), at 262 nm for poly (dA.dT)-(dA.dT) and at 260 nm for lambda DNA. The solution was transferred to a clean tube. This procedure was followed for three different solutions with the absorbance taken as the average of the three. The concentration of poly (dG.dC)-(dG.dC) stock was calculated to be A254 /8.4×1000 (in μM). The concentration of poly (dA.dT) - (dA.dT) stock was calculated to be A262 /6.6×1000 (in μM). The concentration of lambda DNA stock was calculated to be A260 /7.0×1000 (in μM).
Ethidium Bromide Displacement Assay. The binding of the bis-naphthalimides to DNA and to synthetic polynucleotide duplexes was determined by an ethidium bromide displacement assay that measures the reduction of fluorescence when ethidium bromide is displaced from DNA (Baguley, 1981). The fluorescence intensity of a 3 ml solution containing 9.3 mM NaCl, 2 mM Tris-HCI (pH 7.0), 100 μM EDTA, 1 μM DNA (in nucleotides) and 1.26 μM ethidium bromide in a quartz cuvette was measured at the excitation (546 nm) and emission (600 nm) wavelengths on a Shimadzu RF5000U spectrofluorometer. Graded concentrations of agent were then added and the fluorescence intensity was measured. The concentration of compound required to reduce the fluorescence intensity by 50% of that of control (FI50) was determined. Therefore, the lower the FI50 the stronger the binding affinity a particular compound has for DNA. […]

[5] = test system: HT29 human colon carcinoma cell line; assay: Growth inhibition (MTT), HT29 human colon carcinoma cell line; assay type: cell-based; details: 6 days incubation
Description: as §1, §2, §3, §4

[6] = test system: B16 melanoma; assay: In vivo tumor inhibiting activity vs. B16 melanoma in B6D2F1 mice
Method: B16 Melanoma: B6D2F1 mice received i.p. inocula of B16 murine melanoma brei prepared from B16 tumors growing subcutaneously in mice (day 0). On day 1, rumored mice were treated with drugs or vehicle control; the route of drug administration and schedule were selected as appropriate for the study in question. If dosing information for agents was not available, the maximum tolerated dose (MTD) was determined in initial dose finding experiments in non-rumored mice. In a typical experiment, drugs were given at their MTD and 1/2 MTD doses i.p. on a daily×5 schedule.
The mean survival times of all groups were calculated, and results were expressed as mean survival of treated mice/mean survival of control mice (T/C)×100%. A T/C value of 150 means that the mice in the treated group lived 50% longer than those of the control group; this is sometimes referred to as the increase in life space, or ILS value.
Mice that survived for 60 days were considered long term survivors, or cures, in the B16 model. The universally accepted cut-off for activity in this model, which has been used for years by the National Cancer Institute, is T/C=125. Conventional use of B16 over the years has set the following levels of activity: T/C<125, no activity; T/C=125-150, weak activity; T/C=150-200, modest activity; T/C=200-300, high activity; T/C>300, with long term survivors, excellent, curative activity (Goldin et al., 1981).
Statistics were performed on the data using primarily the log rank p-value test.

[7] = cited from earlier work
[8] = test system: human cancers; details: literature; cited from earlier work
[9] = test system: topoisomerase II; details: Hsiang et al., 1989; cited from earlier work
[10] = biological target: poly-(dA.dT)-poly-(dA.dT); assay: Ethidium bromide displacement assay, poly(dA.dT)-poly(dA.dT); assay type: binding; details: 50% reduction of ethidium bromide fluorescence, pH 7.0, read-out: FI50 (the source's name)
Method: as §5
as §6, with “A blank was run on the UV spectrophotometer. 20 μl of the DNA stock of unknown concentration was then added into the cuvette.” left out, “The solution was transferred to a clean tube.” left out, “The concentration of lambda DNA stock was calculated to be A260 /7.0×1000 (in μM).” left out

[11] = biological target: Lambda DNA; assay: Ethidium bromide displacement assay, Lambda DNA; assay type: binding; details: 50% reduction of ethidium bromide fluorescence, pH 7.0, read-out: FI50 (the source's name)
Method: as §5
as §6, with “A blank was run on the UV spectrophotometer. 20 μl of the DNA stock of unknown concentration was then added into the cuvette.” left out, “The solution was transferred to a clean tube.” left out, “The concentration of lambda DNA stock was calculated to be A260 /7.0×1000 (in μM).” left out

[12] = biological target: poly-(dG.dC)-poly-(dG.dC); assay: Ethidium bromide displacement assay, poly(dG.dC)-poly(dG.dC); assay type: binding; details: 50% reduction of ethidium bromide fluorescence, pH 7.0, read-out: FI50 (the source's name)
Method: as §5
as §6, with “A blank was run on the UV spectrophotometer. 20 μl of the DNA stock of unknown concentration was then added into the cuvette.” left out, “The solution was transferred to a clean tube.” left out, “The concentration of lambda DNA stock was calculated to be A260 /7.0×1000 (in μM).” left out

## O=C1c2cccc3cc([N+](=O)[O-])cc(c23)C(=O)N1CCNCCOCCN1C(=O)c2cccc3cc([N+](=O)[O-])cc(c23)C1=O [Compound 6]
[1]
  IC50: 11 nM
[2]
  IC50: 2.6 nM
[3]
  IC50: 35 nM
[4]; FIG. 1, graded concentrations
  Displacement of ethidium bromide / decrease in fluorescence intensity: dose-dependent decrease in fluorescence intensity
[5]
  IC50: 3 nM
[6]; 15 mg/kg, q.d. × 5, i.p.
  Wt. Ch. (Day 7): -7.4%
[6]; comparator DMP840
  activity against B16 melanoma compared with DMP840: more effective against B16 melanoma
[6]; comparators DMP840, 22, 23, cytoxan
  activity compared with DMP840, compounds 22 and 23, and cytoxan: more active

## O=C1c2cccc3cc([N+](=O)[O-])cc(c23)C(=O)N1CCOCCOCCN1C(=O)c2cccc3cc([N+](=O)[O-])cc(c23)C1=O [Compound 19, 5-[2-(3-Nitronaphthalene-1,8-dicarboximido)ethoxy]-1-(3-nitronaphthalene-1,8-dicarboximido)-3-oxapentane]
[1]; B16 melanoma in vitro
  in vitro anticancer activity against B16 melanoma (in words): potent anticancer activity against this melanoma type
[4]
  DNA binding (in words): did not bind to DNA
  Ratio (AT/GC): 1.7

## COc1cccc2c1C(=O)c1c(O)c3c(c(O)c1C2=O)C[C@@](O)(C(C)=O)C[C@@H]3O[C@H]1C[C@H](N)[C@H](O)[C@H](C)O1 [daunorubicin]
[7]; human, in vivo
  cardiomyopathy: limited by an unusual cardiomyopathy

## O=P1(N(CCCl)CCCl)NCCCO1 (centres unmarked) [Cytoxan]
[6]; 300 mg/kg, q.d. × 1, i.p.
  Wt. Ch. (Day 7): -6.6%

## O=C1c2c(O)ccc(O)c2C(=O)c2c(NCCNCCO)ccc(NCCNCCO)c21 [mitoxantrone]
[8]
  clinical anti-tumor activity: exhibit clinical anti-tumor activity

## O=C1c2c(O)cccc2-c2nn(CCNCCO)c3ccc(NCCNCCO)c1c23 [DuP 941]
[8]
  clinical anti-tumor activity: exhibit clinical anti-tumor activity

## COc1cc(NS(C)(=O)=O)ccc1Nc1c2ccccc2nc2ccccc12 [amsacrine]
[8]
  clinical anti-tumor activity: exhibit clinical anti-tumor activity

## CN(C)CCN1C(=O)c2cccc3cc(N)cc(c23)C1=O [amonafide]
[9]
  intercalator-stabilized-topoisomerase II-DNA cleavable complex formation: result in intercalator-stabilized-topoisomerase II-DNA cleavable complex formation
  topoisomerase II inhibition: inhibit topoisomerase II

## O=C1c2cccc3cc([N+](=O)[O-])cc(c23)C(=O)N1CCNCCNCCN1C(=O)c2cccc3cc([N+](=O)[O-])cc(c23)C1=O [Compound 23, 2,2'[1,2-ethanediylbis[imino(2,1-ethanediyl)]]-bis[5-nitro-1H-benz[de]isoquinoline-1,3-(2H)-dione] monomethanesulfonate]
[1]
  IC50: 12.9 nM
[2]
  IC50: 1.39 nM
[3]
  IC50: 6 nM
[5]
  IC50: 0.52 nM
[6]; 2.5 mg/kg, q.d. × 5, i.p.
  Wt. Ch. (Day 7): 0.95%

## O=C1c2cccc3cc([N+](=O)[O-])cc(c23)C(=O)N1CCNCCNCCN1C(=O)c2cccc3cc([N+](=O)[O-])cc(c23)C1=O [Compound 22, 2,2'[1,2-ethanediylbis[imino(2,1-ethanediyl)]]-bis[5-nitro-1H-benz[de]isoquinoline-1,3-(2H)-dione] dimethanesulfonate]
[10]
  IC50: 0.787 µM
[1]
  IC50: 4.3 nM
[2]
  IC50: 0.53 nM
[5]; Homo sapiens, HT-29, 144 h
  IC50: 0.48 nM
[11]
  IC50: 53 nM
[12]
  IC50: 48 nM
[6]; 2.5 mg/kg, q.d. × 5, i.p.
  Wt. Ch. (Day 7): -0.17%

## COc1cccc2c1C(=O)c1c(O)c3c(c(O)c1C2=O)C[C@@](O)(C(=O)CO)C[C@@H]3O[C@H]1C[C@H](N)[C@H](O)[C@H](C)O1 [doxorubicin]
[7]; Calabresi and Chabner, 1990
  cardiomyopathy: limited by an unusual cardiomyopathy

## O=C1c2cccc3cc([N+](=O)[O-])cc(c23)C(=O)N1CCNCCOCCN1C(=O)c2cccc3cc([N+](=O)[O-])cc(c23)C1=O [Compound 5, 5-[2-(3-Nitronaphthalene-1,8-dicarboximido)ethylamino]-1-(3-nitronaphthalene-1,8-dicarboximido)-3-oxapentane]
[10]
  IC50: 5.22 µM
[1]; Mus musculus, B16, 72 h
  IC50: 20 nM
[2]
  IC50: 1 nM
[4]
  Ratio (AT/GC): 73.5
[5]; Homo sapiens, HT-29, 144 h
  IC50: 3 nM
[11]
  IC50: 241 nM
[12]
  IC50: 71 nM
